According to the supplement of paper PMC13380429:

Tests used:
[1] = tested on: A549-ACE2 infected with SARS-CoV-2; test: morphology score (similarity to uninfected cells); higher = more like uninfected cells; details: 24 h
HepG2 [2] = test: drug sensitivity score (DSS) for viability; higher = more toxic; extreme values may be limits of the assay; details: 72 h
Caco-2 [3] = test: as above; details: 72 h
Vero E6 [4] = test: as above; details: 72 h
U2OS [5] = test: as above; details: 72 h
Calu-3 [6] = test: as above; details: 72 h
HepG2 [7] = test: cell viability relative to DMSO; higher = less toxic; details: 72 h
Caco-2 [8] = test: as above; details: 72 h
Vero E6 [9] = test: as above; details: 72 h
U2OS [10] = test: as above; details: 72 h
Calu-3 [11] = test: as above; details: 72 h
A549-ACE2 [12] = test: drug-induced phospholipidosis relative to tamoxifen; higher = more phospholipidosis
A549-ACE2 [13] = test: phospholipidosis EC50; higher = less potent phospholipidosis inducer
Caco-2 [14] = test: relative viability EC50 (midpoint between 100% and the lowest measured viability); higher = less toxic; details: 72 h
Vero E6 [15] = test: as above; details: 72 h
U2OS [16] = test: as above; details: 72 h
Calu-3 [17] = test: as above; details: 72 h
[18] = tested on: A549-ACE2 infected with SARS-CoV-2; test: cell count relative to DMSO; higher = less toxic; details: 24 h
[19] = tested on: A549-ACE2 infected with SARS-CoV-2; test: SARS-CoV-2 infection rate relative to DMSO; higher = more infection; details: 24 h
HepG2 [20] = test: relative viability EC50 (midpoint between 100% and the lowest measured viability); higher = less toxic; details: 72 h

c1ccc(-c2nn3c(c2-c2ccnc4cc(OCCN5CCOCC5)ccc24)CCC3)nc1
Details | SARS-CoV-2 infection rate [%] | cell count [%] | cell viability [%] | morphology score | phospholipidosis EC50 [µM]
A549-ACE2 [13], 24 h | – | – | – | – | 15.2
A549-ACE2 [13], 72 h | – | – | – | – | 12.7
Caco-2 [8], 1 nM | – | – | 94.1 | – | –
Caco-2 [8], 10 nM | – | – | 106 | – | –
Caco-2 [8], 100 nM | – | – | 95.8 | – | –
Caco-2 [8], 1000 nM | – | – | 100 | – | –
Caco-2 [8], 10000 nM | – | – | 94.6 | – | –
Calu-3 [11], 1 nM | – | – | 102 | – | –
Calu-3 [11], 10 nM | – | – | 86.3 | – | –
Calu-3 [11], 100 nM | – | – | 104 | – | –
Calu-3 [11], 1000 nM | – | – | 96 | – | –
Calu-3 [11], 10000 nM | – | – | 101 | – | –
HepG2 [7], 1 nM | – | – | 103 | – | –
HepG2 [7], 10 nM | – | – | 100 | – | –
HepG2 [7], 100 nM | – | – | 96.6 | – | –
HepG2 [7], 1000 nM | – | – | 95.7 | – | –
HepG2 [7], 10000 nM | – | – | 74.7 | – | –
U2OS [10], 1 nM | – | – | 95.4 | – | –
U2OS [10], 10 nM | – | – | 105 | – | –
U2OS [10], 100 nM | – | – | 91.6 | – | –
U2OS [10], 1000 nM | – | – | 90.4 | – | –
U2OS [10], 10000 nM | – | – | 76.5 | – | –
Vero E6 [9], 1 nM | – | – | 102 | – | –
Vero E6 [9], 10 nM | – | – | 99.8 | – | –
Vero E6 [9], 100 nM | – | – | 111 | – | –
Vero E6 [9], 1000 nM | – | – | 108 | – | –
Vero E6 [9], 10000 nM | – | – | 105 | – | –
[1], 0.3 µM | – | – | – | 0.43 | –
[1], 3 µM | – | – | – | 0.25 | –
[1], 10 µM | – | – | – | 0.09 | –
[1], 30 µM | – | – | – | -0.11 | –
[18], 0.3 µM | – | 108 | – | – | –
[18], 3 µM | – | 104 | – | – | –
[18], 10 µM | – | 96 | – | – | –
[18], 30 µM | – | 95 | – | – | –
[19], 0.3 µM | 82 | – | – | – | –
[19], 3 µM | 97 | – | – | – | –
[19], 10 µM | 108 | – | – | – | –
[19], 30 µM | 106 | – | – | – | –

Details | drug sensitivity score | relative viability EC50 [µM]
Caco-2 [3] | 0 | –
Caco-2 [14] | – | > 10
Calu-3 [6] | 0 | –
Calu-3 [17] | – | > 10
HepG2 [2] | 1.6 | –
U2OS [5] | 1.5 | –
U2OS [16] | – | > 10
Vero E6 [4] | 0 | –
Vero E6 [15] | – | > 10

drug-induced phospholipidosis [%], A549-ACE2 [12]
Details | 0.3 µM | 0.833333 µM | 3.33333 µM | 6.66667 µM | 10 µM | 30 µM
24 h | 7.41 | 15.4 | 31.7 | 44.4 | 57.5 | 78.6
48 h | 5.26 | 4.41 | 16.2 | 19.5 | 30.1 | 52.8
72 h | 2.76 | -1.59 | 7.52 | 15.3 | 29.5 | 58.6

CC(C)C[C@H](NC(=O)[C@H](CCc1ccccc1)NC(=O)CN1CCOCC1)C(=O)N[C@@H](Cc1ccccc1)C(=O)N[C@@H](CC(C)C)C(=O)[C@@]1(C)CO1 [carfilzomib]
Details | SARS-CoV-2 infection rate, [19] [%] | cell count, [18] [%] | cell viability, Caco-2 [8] [%] | cell viability, Calu-3 [11] [%] | cell viability, HepG2 [7] [%] | cell viability, U2OS [10] [%] | cell viability, Vero E6 [9] [%] | morphology score, [1]
1 nM | – | – | 91.9 | 104 | 94.6 | 96 | 100 | –
10 nM | – | – | 50.8 | 91.2 | 68.8 | 76.7 | 97.6 | –
0.1 µM | 51 | 69 | – | – | – | – | – | 0.25
100 nM | – | – | 8.6 | 5.8 | 9 | 0.4 | 55.4 | –
0.3 µM | 24 | 49 | – | – | – | – | – | 0.29
1 µM | 22 | 34 | – | – | – | – | – | 0.25
1000 nM | – | – | 4.4 | 4.3 | -0.4 | -0.5 | 5.3 | –
3 µM | 20 | 26 | – | – | – | – | – | 0.18
10000 nM | – | – | 6 | 1.7 | -0.3 | -0.3 | 2.3 | –

Details | drug sensitivity score | relative viability EC50 [µM]
Caco-2 [3] | 34.7 | –
Caco-2 [14] | – | 0.0093
Calu-3 [6] | 30.9 | –
Calu-3 [17] | – | 0.0267
HepG2 [2] | 32.8 | –
HepG2 [20] | – | 0.018
U2OS [5] | 34.1 | –
U2OS [16] | – | 0.0161
Vero E6 [4] | 22.6 | –
Vero E6 [15] | – | 0.112

Details | drug-induced phospholipidosis [%]
A549-ACE2 [12], 0.3 µM, 24 h | -37.6

CN1CCCN(C(c2ccccc2)c2ccc(Cl)cc2)CC1 (configuration not stated) [homochlorcyclizine]
Details | SARS-CoV-2 infection rate [%] | cell count [%] | cell viability [%] | morphology score | phospholipidosis EC50 [µM]
A549-ACE2 [13], 24 h | – | – | – | – | 6.4
A549-ACE2 [13], 48 h | – | – | – | – | 7.14
A549-ACE2 [13], 72 h | – | – | – | – | 10.5
Caco-2 [8], 1 nM | – | – | 97.5 | – | –
Caco-2 [8], 10 nM | – | – | 94.7 | – | –
Caco-2 [8], 100 nM | – | – | 90.5 | – | –
Caco-2 [8], 1000 nM | – | – | 99.6 | – | –
Caco-2 [8], 10000 nM | – | – | 101 | – | –
Calu-3 [11], 1 nM | – | – | 96.8 | – | –
Calu-3 [11], 10 nM | – | – | 94.3 | – | –
Calu-3 [11], 100 nM | – | – | 100 | – | –
Calu-3 [11], 1000 nM | – | – | 102 | – | –
Calu-3 [11], 10000 nM | – | – | 99.3 | – | –
HepG2 [7], 1 nM | – | – | 98.7 | – | –
HepG2 [7], 10 nM | – | – | 103 | – | –
HepG2 [7], 100 nM | – | – | 104 | – | –
HepG2 [7], 1000 nM | – | – | 108 | – | –
HepG2 [7], 10000 nM | – | – | 79.6 | – | –
U2OS [10], 1 nM | – | – | 99.8 | – | –
U2OS [10], 10 nM | – | – | 95.7 | – | –
U2OS [10], 100 nM | – | – | 104 | – | –
U2OS [10], 1000 nM | – | – | 99.2 | – | –
U2OS [10], 10000 nM | – | – | 97.1 | – | –
Vero E6 [9], 1 nM | – | – | 97.9 | – | –
Vero E6 [9], 10 nM | – | – | 99.5 | – | –
Vero E6 [9], 100 nM | – | – | 95.2 | – | –
Vero E6 [9], 1000 nM | – | – | 96.4 | – | –
Vero E6 [9], 10000 nM | – | – | 102 | – | –
[1], 0.3 µM | – | – | – | 0.01 | –
[1], 3 µM | – | – | – | 0.71 | –
[1], 10 µM | – | – | – | 0.84 | –
[1], 30 µM | – | – | – | 0.53 | –
[18], 0.3 µM | – | 102 | – | – | –
[18], 3 µM | – | 117 | – | – | –
[18], 10 µM | – | 113 | – | – | –
[18], 30 µM | – | 95 | – | – | –
[19], 0.3 µM | 97 | – | – | – | –
[19], 3 µM | 51 | – | – | – | –
[19], 10 µM | 20 | – | – | – | –
[19], 30 µM | 19 | – | – | – | –

Details | drug sensitivity score | relative viability EC50 [µM]
Caco-2 [3] | 0 | –
Caco-2 [14] | – | > 10
Calu-3 [6] | 0 | –
Calu-3 [17] | – | > 10
HepG2 [2] | 0.4 | –
HepG2 [20] | – | > 10
U2OS [5] | 0 | –
U2OS [16] | – | > 10
Vero E6 [4] | 0 | –
Vero E6 [15] | – | > 10

drug-induced phospholipidosis [%], A549-ACE2 [12]
Details | 0.3 µM | 0.833333 µM | 3.33333 µM | 6.66667 µM | 10 µM | 30 µM
24 h | 1.65 | 3.27 | 20.6 | 54.6 | 81 | 102
48 h | 3.21 | 3.5 | 22.2 | 49.2 | 82.5 | 107
72 h | 7.01 | 3.95 | 24.7 | 47.4 | 80.1 | 134
